# Experimental data published in patent US20100256357A1, “HETEROCYCLES USEFUL AS INHIBITORS OF CARBONIC ANHYDRASE” (Agouron Pharmaceuticals, Inc., priority 2006, published 2010).
# Target: T1, human CA-IV (Homo sapiens, UniProt P22748)
# T1 construct: made in house; host or cells: Escherichia coli BL21(DE3)
# Assay: Carbonic Anhydrase-IV (CA-IV) Fluorescence Polarization Assay-IC50 Determination
# Assay type: binding
# Settings: read-out: IC50_CAIV
# Experimental: Carbonic Anhydrase-IV (CA-IV) Fluorescence Polarization Assay-IC50 Determination
# These cells were grown in Luria broth (LB) media (Biomyx) supplemented with 800 uM ZnCl2 at 37° C. until an O.D.600 of 0.7, at which point the cells were induced with 100 uM isopropyl-beta-D-thiogalactopyranoside (IPTG) for 20 hours at 20° C. The frozen pellet was resuspended in 50mM 2-morpholinoethanesulfonic acid (MES) at pH 6.0, 100 mM NaCl, 800 uM ZnCl2 and EDTA-Free protease inhibitors (Roche). The cells were lysed with a microfluidizer, the lysate was spun at 40,000 rpm for 45 minutes at 4° C., and the soluble fraction was dialyzed overnight at 4° C. in 50 mM MES pH 6.0, and 100 mM NaCl. The soluble fraction was then put over a 100 ml SP-Sepharose High Performance (GE Healthcare) column and eluted with a 50 mM MES pH 6.0, 750 mM NaCl gradient. The peak fractions were then concentrated, via an Amicon Ultra-4 10,000 MWCO (Millipore) spin column to 2.0 mL and loaded onto a Sephacryl S-100 High Resolution (GE Healthcare) column in 25 mM tris(hydroxymethyl)aminomethane hydrochloride (Tris-HCl) pH 7.0, and 100 mM NaCl. The peak fractions were then concentrated, via an Amicon Ultra-4 10,000 MWCO (Millipore) spin column, to 7.0 mg/mL and left exposed at room temperature overnight. […] T.; et al. Carbonic Anhydrase Inhibitors. Med. Res. Rev. […]
# Assays were conducted in a final volume of 100 μL in 50 mM Tris/HCl (pH 7.6), 100 mM Na2SO4 and 0.005% Tween-20 in a 96-well black assay plate.
# T1 sequence (P22748 19-284 limits assumed): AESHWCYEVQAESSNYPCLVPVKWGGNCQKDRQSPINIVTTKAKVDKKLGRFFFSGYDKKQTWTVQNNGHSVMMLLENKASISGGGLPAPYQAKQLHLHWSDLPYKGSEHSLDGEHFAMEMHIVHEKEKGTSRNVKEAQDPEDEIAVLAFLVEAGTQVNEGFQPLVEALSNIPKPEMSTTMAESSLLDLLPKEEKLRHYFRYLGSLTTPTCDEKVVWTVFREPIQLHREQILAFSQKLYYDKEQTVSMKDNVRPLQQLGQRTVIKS
row,SMILES,IC50
1,"NS(=O)(=O)c1ccc(-n2nc3c(c2CN2CCOCC2)CCCC3)cc1 [II-1c, 4-[3-(morpholin-4-ylmethyl)-4,5,6,7-tetrahydro-2H-indazol-2-yl]benzenesulfonamide]",≥ 5 µM
2,"CCNC(=O)c1cc(C)n(-c2ccc(S(N)(=O)=O)cc2C(=O)NCc2ccccc2)n1 [KK-1h, 1-{4-(aminosulfonyl)-2-[(benzylamino)carbonyl]phenyl}-N-ethyl-5-methyl-1H-pyrazole-3-carboxamide]",2.19 µM
3,"CCNC(=O)c1cc(C)n(-c2ccc(S(N)(=O)=O)cc2C(=O)NCC)n1 [KK-1m, 1-{4-(aminosulfonyl)-2-[(ethylamino)carbonyl]phenyl}-N-ethyl-5-methyl-1H-pyrazole-3-carboxamide]",> 5 µM
4,"NS(=O)(=O)c1ccc(-n2nc(C(F)(F)F)c3c2CCNC3)c(C(=O)NCc2ccncc2)c1 [KK-1n, 5-(aminosulfonyl)-N-(pyridin-4-ylmethyl)-2-[3-(trifluoromethyl)-4,5,6,7-tetrahydro-1H-pyrazolo[4,3-c]pyridin-1-yl]benzamide]",> 5 µM
5,"CCNC(=O)c1cc(C)n(-c2ccc(S(N)(=O)=O)cc2C(=O)NCc2ccncc2)n1 [KK-1o, 1-[4-(aminosulfonyl)-2-{[(pyridin-4-ylmethyl)amino]carbonyl}phenyl]-N-ethyl-5-methyl-1H-pyrazole-3-carboxamide]",4.53 µM
6,"NS(=O)(=O)c1ccc(-n2nc(C(F)(F)F)c3c2CCNC3)c(C(=O)NCc2ccccc2)c1 [KK-1p, 5-(aminosulfonyl)-N-benzyl-2-[3-(triflurormethyl)-4,5,6,7-tetrahydro-1H-pyrazolo[4,3-c]pyridin-1-yl]benzamide]",> 5 µM
7,CCNC(=O)c1cc(C)n(-c2ccc(S(N)(=O)=O)cc2C(=O)OC(C)C)n1 [KK-1r],1.31 µM
8,"CCNCc1cc(S(N)(=O)=O)ccc1-n1nc(C(F)(F)F)c2c1CCCC2 [LL-1, 3-[(Ethylamino)methyl]-4-[3-(trifluoromethyl)-4,5,6,7-tetrahydro-1H-indazol-1-yl]-benzene-sulfonamide]",≥ 5 µM
9,"Cc1cc(C(=O)N2CCOCC2)nn1-c1ccc(S(N)(=O)=O)cc1CNCc1ccccc1 [LL-1a, 3-[(benzylamino)methyl]-4-(5-methyl-3-(morpholin-4-ylcarbonyl)-1H-pyrazol-1-yl]benzenesulfonamide]",> 5 µM

# The remaining lines, values ahead:
row,IC50,SMILES
1,0.186 µM,"CN(Cc1cc(Cc2ccccc2)n(-c2ccc(S(N)(=O)=O)cc2F)n1)C1CCCCC1 [Example -1h, 4-(5-benzyl-3-{[cyclohexyl(methyl)amino]methyl}-1H-pyrazol-1-yl)-3-fluorobenzenesulfonamide]"
2,0.114 µM,"Cc1cccc(Cc2cc(CN3CCC(F)(F)C3)nn2-c2ccc(S(N)(=O)=O)cc2F)c1 [PP-1, 4-[3-[(3,3-difluoropyrrolidin-1-yl)methyl]-5-(3-methylbenzyl)-1H-pyrazol-1-yl]-3-fluorobenzenesulfonamide]"
3,0.168 µM,"Cc1cccc(Cc2cc(CN3CCCC(C#N)C3)nn2-c2ccc(S(N)(=O)=O)cc2F)c1 (stereo not shown) [PP-1a, 4-[3-[(3-cyanopiperidin-1-yl)methyl]-5-(3-methylbenzyl)-1H-pyrazol-1-yl]-3-fluorobenzenesulfonamide]"
4,0.145 µM,"COCCN(C)Cc1cc(Cc2cccc(C)c2)n(-c2ccc(S(N)(=O)=O)cc2F)n1 [PP-1b, 3-fluoro-4-[3-{[(2-methoxyethyl)(methyl)amino]methyl}-5-(3-methylbenzyl)-1H-pyrazol-1-yl]benzenesulfonamide]"
5,0.301 µM,"CCCN(C)Cc1cc(Cc2ccccc2)n(-c2ccc(S(N)(=O)=O)cc2F)n1 [QQ-1, 4-(5-benzyl-3-{[methyl(propyl)amino]methyl}-1H-pyrazol-1-yl)-3-fluorobenzenesulfonamide]"
6,0.563 µM,"NS(=O)(=O)c1ccc(-n2nc(CN3CCOCC3)cc2Cc2ccc(Cl)cc2)cc1 [QQ-1a, 4-[5-(4-chlorobenzyl)-3-(morpholin-4-ylmethyl)-1H-pyrazol-1-yl]benzenesulfonamide]"
7,0.281 µM,"NS(=O)(=O)c1ccc(-n2nc(CNCC3CCCCC3)cc2Cc2ccc(Cl)cc2)cc1 [QQ-1b, 4-[5-(4-chlorobenzyl)-3-{[(cyclohexylmethyl)amino]methyl}-1H-pyrazol-1-yl]benzenesulfonamide]"
8,0.38 µM,"CN(CCc1ccccn1)Cc1cc(Cc2ccc(Cl)cc2)n(-c2ccc(S(N)(=O)=O)cc2)n1 [QQ-1c, 4-[5-(4-chlorobenzyl)-3-{[methyl(2-pyridin-2-ylethyl)amino]methyl}-1H-pyrazol-1-yl]benzenesulfonamide]"
9,0.4 µM,"C[C@@H]1CN(Cc2cc(Cc3ccccc3)n(-c3ccc(S(N)(=O)=O)cc3)n2)C[C@H](C)O1 [QQ-1d, 4-(5-benzyl-3-{[(2R,6S)-2,6-dimethylmorpholin-4-yl]methyl}-1H-pyrazol-1-yl)benzenesulfonamide]"
10,0.379 µM,"CCCN(C)Cc1cc(Cc2ccccc2)n(-c2ccc(S(N)(=O)=O)cc2)n1 [QQ-1e, 4-(5-benzyl-3-{[methyl(propyl)amino]methyl}-1H-pyrazol-1-yl)benzenesulfonamide]"
11,0.171 µM,CCCCN(C)Cc1cc(Cc2ccc(Br)cc2)n(-c2ccc(S(N)(=O)=O)cc2F)n1 [QQ-1f]
12,0.354 µM,"NS(=O)(=O)c1ccc(-n2nc(CN3CC=CCC3)cc2Cc2ccccc2)c(F)c1 [QQ-1g, 4-[5-benzyl-3-(3,6-dihydropyridin-1(2H)-ylmethyl)-1H-pyrazol-1-yl]-3-fluorobenzenesulfonamide]"
13,0.48 µM,"C[C@@H]1CN(Cc2cc(Cc3ccccc3)n(-c3ccc(S(N)(=O)=O)cc3F)n2)C[C@H](C)O1 [QQ-1i, 4-(5-benzyl-3-{[(2R,6S)-2,6-dimethylmorpholin-4-yl]methyl}-1H-pyrazol-1-yl)-3-fluorobenzenesulfonamide]"
14,0.278 µM,"CCCCN(C)Cc1cc(Cc2ccccc2)n(-c2ccc(S(N)(=O)=O)cc2F)n1 [QQ-1j, 4-(5-benzyl-3-{[butyl(methyl)amino]methyl}-1H-pyrazol-1-yl)-3-fluorobenzenesulfonamide]"
15,0.253 µM,"NS(=O)(=O)c1ccc(-n2nc(CN3CC=CCC3)cc2Cc2ccc(Br)cc2)c(F)c1 [QQ-1k, 4-[5-(4-bromobenzyl)-3-(3,6-dihydropyridin-1(2H)-ylmethyl)-1H-pyrazol-1-yl]-3-fluorobenzenesulfonamide]"
16,0.552 µM,"NS(=O)(=O)c1ccc(-n2nc(CN3CC=CCC3)cc2Cc2ccccc2)cc1 [QQ-1l, 4-[5-benzyl-3-(3,6-dihydropyridin-1(2H)-ylmethyl)-1H-pyrazol-1-yl]benzenesulfonamine]"

# Target: T2, human CA-II (Homo sapiens, UniProt P00918)
# T2 construct: purchased Sigma-Aldrich C6165
# Assay: Carbonic Anhydrase-II (CA-II) Fluorimetric Assay-IC50 Determination
# Assay type: biochemical
# Settings: Kd ND, IC50 given instead; read-out: CA-II IC50 (where Kd is ND)
# Experimental: Carbonic Anhydrase-II (CA-II) Fluorimetric Assay-IC50 Determination
# Compounds were diluted in DMSO at the concentration of 1 mM, then 50 μM and transferred to a 96-well plate for further dilutions (1:3 dilution, 11 points) in duplicate. Highest final concentration of compound in this CA-II Fluorimetric assay is 1 μM. Assays were conducted in a final volume of 100 μL in 50 mM Tris/HCl (pH 7.6), 100 mM Na2SO4 and 0.005% Tween-20 in a 96-well black assay plate. Fluorescein diacetate was used as the substrate. Enzyme inhibition was determined by pipetting 8 μL of human CA-II (5 nM, from Sigma-Aldrich, product #: C6165) into assay plate contained 2 μL of compound and 2 μL of substrate (10 μM) in 88 μL of assay buffer. The rate of the hydrolysis of fluorescein diacetate were measured spectrophometrically at 488 nm (excitation), 538 nm (emission) and 530 nm (cutoff) using a Molecular Devices SpectraMax M2 fluorescence reader at 25° C.
row,IC50,SMILES
1,0.00328 µM,"CN(CC1CCCCO1)C(=O)c1nc(Cc2ccccc2)n(-c2ccc(S(N)(=O)=O)cc2)n1 (stereo not shown) [Example R-106, 1-[4-(aminosulfonyl)phenyl]-5-benzyl-N-methyl-N-(tetrahydro-2H-pyran-2-ylmethyl)-1H-124-triazole-3-carboxamide]"
2,0.00361 µM,"CN(Cc1ccccc1)C(=O)c1nc(Cc2ccccc2)n(-c2ccc(S(N)(=O)=O)cc2)n1 [Example R-109, 1-[4-(aminosulfonyl)phenyl]-N5-dibenzyl-N-methyl-1H-124-triazole-3-carboxamide]"
3,0.00314 µM,"NS(=O)(=O)c1ccc(-n2nc(C(=O)N3C[C@@H](F)[C@H](F)C3)nc2Cc2ccccc2)cc1 [Example R-111, 4-(5-benzyl-3-{[(3R4R)-34-difluoropyrrolidin-1-yl]carbonyl}-1H-124-triazol-1-yl)benzenesulfonamide]"
